From PMC12957839, “Antiviral activity and mechanism of purine morpholine nucleoside analogues incorporating a sulfonamide fragment” (Journal of Advanced Research, 2025)
In brackets after ≈: the same amount, converted by molar mass.

Experiments:
Type in all cases: in vivo, Pepper mild mottle virus (PMMoV)
PMMoV [1] = test: Antiviral activity assay against PMMoV, inactivating activity; conditions: against PMMoV, average of three replicates, ± standard deviation; for pest or weed control at 500 µg/mL / EC50: Pepper mild mottle virus; for pest or weed control at 500 µg/mL: read-out: Inactivating activity; for EC50: read-out: EC50 of inactivating activity
Experimental: (§1) Virions were isolated and extracted from leaves of N. benthamiana infected with PMMoV referring to the method recorded in the literature. And the inhibiting activities of C1–C38 against PMMoV were assessed with reference to the literature as well [26, 34].

PMMoV [2] = test: Antiviral activity assay against PMMoV, curative activity; set-up: Curative activity: concentration or dose not given beside the values; conditions: against PMMoV, average of three replicates, ± standard deviation; for EC50: Pepper mild mottle virus, read-out: EC50 of curative activity
Experimental: as §1

PMMoV [3] = test: Antiviral activity assay against PMMoV, protective activity; set-up: Protective activity: concentration or dose not given beside the values; conditions: against PMMoV, average of three replicates, ± standard deviation; for EC50: Pepper mild mottle virus, read-out: EC50 of protective activity
Experimental: as §1

Structure (SMILES) | pest or weed control at 500 µg/mL (PMMoV [1]; at 500 µg/mL) | EC50 (PMMoV [1]) | EC50 (PMMoV [2]) | Curative activity (PMMoV [2]) | EC50 (PMMoV [3]) | Protective activity (PMMoV [3]) | Inactivating activity (PMMoV [1]; at 500 µg/mL)
CC(=O)OCC1OC(n2cnc3c(N4CCOCC4)nc(Cl)nc32)C(NS(=O)(=O)c2ccc(C(F)(F)F)cc2)C(OC(C)=O)C1OC(C)=O (stereo not shown) [C27] | 62.4 ± 4.7% | 184 ± 10 µg/mL (≈ 251 µM) | 51.1 ± 3.6 µg/mL (≈ 69.5 µM) | 69.9 ± 3.6% | 534 ± 14.9 µg/mL (≈ 726 µM) | 45.0 ± 3.4% | –
CC(=O)OCC1OC(n2cnc3c(N4CCOCC4)ncnc32)C(NS(=O)(=O)c2cccc(Br)c2)C(OC(C)=O)C1OC(C)=O (stereo not shown) [C16] | 55.9 ± 1.5% | 171 ± 9.6 µg/mL (≈ 241 µM) | 48.5 ± 3.1 µg/mL (≈ 68.2 µM) | 58.9 ± 4.2% | 664 ± 12.4 µg/mL (≈ 933 µM) | 45.3 ± 2.5% | –
CC(=O)OCC1OC(n2cnc3c(N4CCOCC4)nc(F)nc32)C(NS(=O)(=O)c2ccc(C(F)(F)F)cc2)C(OC(C)=O)C1OC(C)=O (stereo not shown) [C28] | 44 ± 4.3% | 576 ± 14.9 µg/mL (≈ 801 µM) | 45.4 ± 3 µg/mL (≈ 63.2 µM) | 69.4 ± 4.9% | 633 ± 13.6 µg/mL (≈ 881 µM) | 42.9 ± 0.7% | –
Cc1ccc(S(=O)(=O)NC2C(O)C(O)C(CO)OC2n2cnc3c(N4CCOCC4)nc(Cl)nc32)cc1 (stereo not shown) [C36] | 50.6 ± 3.6% | 313 ± 7.1 µg/mL (≈ 564 µM) | 283 ± 10.5 µg/mL (≈ 510 µM) | 57.3 ± 1.1% | 562 ± 11.1 µg/mL (≈ 1010 µM) | 52.2 ± 0.8% | –
CC(=O)OCC1OC(n2cnc3c(N4CCOCC4)nc(F)nc32)C(NS(=O)(=O)c2ccc(F)cc2)C(OC(C)=O)C1OC(C)=O (stereo not shown) [C31] | 68.5 ± 1.7% | 50 ± 2 µg/mL (≈ 74.8 µM) | 29.6 ± 1.1 µg/mL (≈ 44.3 µM) | 61.9 ± 3.3% | 99.6 ± 3.8 µg/mL (≈ 149 µM) | 56.0 ± 1.9% | –
CC(=O)OCC1OC(n2cnc3c(N4CCOCC4)nc(Cl)nc32)C(NS(=O)(=O)c2c(C)cc(C)cc2C)C(OC(C)=O)C1OC(C)=O (stereo not shown) [C23] | 55.4 ± 2.6% | 240 ± 17.8 µg/mL (≈ 338 µM) | 11.3 ± 3.3 µg/mL (≈ 15.9 µM) | 69.0 ± 3.5% | 145 ± 7.7 µg/mL (≈ 204 µM) | 57.4 ± 1.6% | –
CC(=O)OCC1OC(n2cnc3c(N4CCOCC4)nc(F)nc32)C(NS(=O)(=O)c2ccc([N+](=O)[O-])cc2)C(OC(C)=O)C1OC(C)=O (stereo not shown) [C3] | 68.9 ± 4.9% | 198 ± 16.1 µg/mL (≈ 285 µM) | 11.5 ± 4.4 µg/mL (≈ 16.5 µM) | 67.0 ± 3.6% | 388 ± 16.6 µg/mL (≈ 557 µM) | 57.5 ± 4.3% | –
COc1ccc(S(=O)(=O)NC2C(OC(C)=O)C(OC(C)=O)C(COC(C)=O)OC2n2cnc3c(N4CCOCC4)nc(N)nc32)cc1 (stereo not shown) [C14] | 38.5 ± 2% | 4507 ± 24.2 µg/mL (≈ 6650 µM) | 100 ± 8.9 µg/mL (≈ 148 µM) | 53.6 ± 2.4% | 926 ± 11.4 µg/mL (≈ 1370 µM) | 38.3 ± 4.4% | –
CC(=O)OCC1OC(n2cnc3c(N4CCOCC4)ncnc32)C(NS(=O)(=O)c2ccccc2)C(OC(C)=O)C1OC(C)=O (stereo not shown) [C18] | 61.3 ± 2.8% | 134 ± 8.5 µg/mL (≈ 212 µM) | 24.7 ± 1.3 µg/mL (≈ 39 µM) | 63.5 ± 2.5% | 994 ± 11.2 µg/mL (≈ 1570 µM) | 41.9 ± 2.9% | –
CC(=O)OCC1OC(n2cnc3c(N4CCOCC4)ncnc32)C(NS(=O)(=O)c2ccc(C#N)cc2)C(OC(C)=O)C1OC(C)=O (stereo not shown) [C7] | 36.6 ± 3.2% | 2415 ± 17.2 µg/mL (≈ 3670 µM) | 281 ± 10.3 µg/mL (≈ 427 µM) | 55.8 ± 1.3% | 793 ± 17.1 µg/mL (≈ 1210 µM) | 44.7 ± 1.4% | –
CC(=O)OCC1OC(n2cnc3c(N4CCOCC4)ncnc32)C(NS(=O)(=O)c2ccc(Cl)cc2)C(OC(C)=O)C1OC(C)=O (stereo not shown) [C9] | 65.8 ± 3.9% | 103 ± 9.1 µg/mL (≈ 155 µM) | 33.3 ± 1.2 µg/mL (≈ 49.9 µM) | 70.9 ± 4.9% | 267 ± 8.6 µg/mL (≈ 401 µM) | 58.9 ± 4.0% | –
CC(=O)OCC1OC(n2cnc3c(N4CCOCC4)nc(F)nc32)C(NS(=O)(=O)c2ccc(OC(F)(F)F)cc2)C(OC(C)=O)C1OC(C)=O (stereo not shown) [C34] | 72.7 ± 2% | 53 ± 2.2 µg/mL (≈ 72.1 µM) | 33.8 ± 4.6 µg/mL (≈ 46 µM) | 67.4 ± 2.0% | 53.8 ± 4.8 µg/mL (≈ 73.2 µM) | 65.6 ± 4.5% | –
CC(=O)OCC1OC(n2cnc3c(N4CCOCC4)ncnc32)C(NS(=O)(=O)c2ccc(F)cc2)C(OC(C)=O)C1OC(C)=O (stereo not shown) [C30] | 61.7 ± 4.6% | 20.4 ± 4.9 µg/mL (≈ 31.4 µM) | 60.2 ± 3.1 µg/mL (≈ 92.5 µM) | 67.9 ± 3.3% | 262 ± 10.3 µg/mL (≈ 402 µM) | 58.9 ± 3.8% | –
CC(=O)OCC1OC(n2cnc3c(N4CCOCC4)nc(N)nc32)C(NS(=O)(=O)c2c(C)cc(C)cc2C)C(OC(C)=O)C1OC(C)=O (stereo not shown) [C22] | 61.3% | 13.7 ± 1.6 µg/mL (≈ 19.9 µM) | 26.2 ± 1.3 µg/mL (≈ 38 µM) | 67.6 ± 1.9% | 38 ± 3.5 µg/mL (≈ 55.1 µM) | 61.2 ± 1.6% | 61.3 ± 4.5%
